The subject of series [1] is Mtb H37Rv in THP-1. More on the design: method as in Sorrentino et al, 2015. To be noted: ref Sorrentino et al, 2015, cited from earlier work; for Intracelullar MIC90 in THP-1: THP1 / Mtb H37Rv infection assay; for Extracellular MIC90/ Inracellular MIC90: ratio.
Series [2] deals with BV2 cells.
Series [3] concerns M. marinum in A. castellanii. Format: cell-based, Mycobacterium marinum.
Series [4] concerns D. discoideum GFP-ABD.
For series [5], the system named is M. marinum in BV2 microglial cells. Format: cell-based, Mycobacterium marinum.
Series [6] deals with Mtb H37Rv. More on the design: method as in Sorrentino et al, 2015. Conditions: ref Sorrentino et al, 2015; cited from earlier work.
Series [7] deals with M. marinum luxCDABE. It counts as cell-based, Mycobacterium marinum.

Consider `COc1ccc2cc(C(=O)Nc3ccc(C4CCN(C)CC4)cc3)sc2c1` [GSK1635139A], for which, in series [1], the “Intracelullar MIC90 in THP-1” value was 50 µM and the “Extracellular MIC90/ Inracellular MIC90” value is recorded as 0.19. In addition, the “Growth inhibition / Cytotoxicity assays: BV2 cells” value in series [2] was “False”. Further, the “Intracellular infection assays: A. castellanii / M. marinum” value in series [3] worked out at 1.28. In series [4], the “Growth inhibition / Cytotoxicity assays: D. discoideum GFP-ABD” value was determined as 0.78. Besides, the “Intracellular infection assays: BV2 / M. marinum” value in series [5] was 1.15. In addition, in series [6], the “Extracellular MIC90” value is reported as 9.5 µM. In addition, in series [7], the “Antibiotic assays: M. marinum luxCDABE” value is listed as 1.00.
On to `O=C(Nc1nc(-c2ccccn2)cs1)c1cncn1-c1ccccc1` [GSK1691553A], for which, in series [1], the “Intracelullar MIC90 in THP-1” value is 50 µM and the “Extracellular MIC90/ Inracellular MIC90” value was 0.16. Also, the “Growth inhibition / Cytotoxicity assays: BV2 cells” value in series [2] was “False”. In series [3], the “Intracellular infection assays: A. castellanii / M. marinum” value was found to be 1.03. The “Growth inhibition / Cytotoxicity assays: D. discoideum GFP-ABD” value in series [4] was 0.80. In addition, the “Intracellular infection assays: BV2 / M. marinum” value in series [5] amounted to 1.01. For the same molecule, the “Extracellular MIC90” value in series [6] is on record as 7.9 µM. For the same molecule, the “Antibiotic assays: M. marinum luxCDABE” value in series [7] stood at 0.07.
Turning to `O=C(N[C@@H](Cc1ccccc1)C(=O)Nc1ccccc1N1CCOCC1)c1cccs1` [GSK1729177A], in series [1], the “Intracelullar MIC90 in THP-1” value is reported as 50 µM and the “Extracellular MIC90/ Inracellular MIC90” value is reported as 0.13. Besides, in series [2], the “Growth inhibition / Cytotoxicity assays: BV2 cells” value is on record as “True”. Besides, the “Intracellular infection assays: A. castellanii / M. marinum” value in series [3] is 0.64. Moreover, in series [4], the “Growth inhibition / Cytotoxicity assays: D. discoideum GFP-ABD” value is given as 1.04. Besides, in series [5], the “Intracellular infection assays: BV2 / M. marinum” value was 1.02. In addition, in series [6], the “Extracellular MIC90” value was 6.6 µM. In addition, the “Antibiotic assays: M. marinum luxCDABE” value in series [7] is on record as 0.00.
In the case of `O=C(NCc1ccccc1F)N1CCN(Cc2ccc(Br)s2)CC1` [GSK1758774A], in series [1], the “Intracelullar MIC90 in THP-1” value is reported as 5.55 µM and the “Extracellular MIC90/ Inracellular MIC90” value is recorded as 1.19. In series [2], the “Growth inhibition / Cytotoxicity assays: BV2 cells” value was “False”. The “Intracellular infection assays: A. castellanii / M. marinum” value in series [3] is on record as 1.13. In addition, the “Growth inhibition / Cytotoxicity assays: D. discoideum GFP-ABD” value in series [4] came out at 0.85. Also, in series [5], the “Intracellular infection assays: BV2 / M. marinum” value is reported as 1.05. In series [6], the “Extracellular MIC90” value was 6.6 µM. The “Antibiotic assays: M. marinum luxCDABE” value in series [7] is given as 1.00.
For the molecule `COc1ccc(-c2ccc(Nc3cccc(S(=O)(=O)CCNCCc4cccs4)c3)nc2)cn1` [GSK1826089A], in series [1], the “Intracelullar MIC90 in THP-1” value is given as 1.85 µM and the “Extracellular MIC90/ Inracellular MIC90” value is listed as 4.11. Besides, the “Growth inhibition / Cytotoxicity assays: BV2 cells” value in series [2] is recorded as “False”. In series [3], the “Intracellular infection assays: A. castellanii / M. marinum” value is reported as 1.17. In series [4], the “Growth inhibition / Cytotoxicity assays: D. discoideum GFP-ABD” value was determined as 0.69. Also, the “Intracellular infection assays: BV2 / M. marinum” value in series [5] was 1.09. The “Extracellular MIC90” value in series [6] is 7.6 µM. Further, the “Antibiotic assays: M. marinum luxCDABE” value in series [7] stood at 0.085.
For `COc1ccc(CC(=O)Nc2c(-c3cccs3)nc3cc(C)ccn23)cc1` [GSK1857145A], in series [1], the “Intracelullar MIC90 in THP-1” value is 5.55 µM and the “Extracellular MIC90/ Inracellular MIC90” value is 1.22. For the same molecule, the “Growth inhibition / Cytotoxicity assays: BV2 cells” value in series [2] is recorded as “False”. Further, in series [3], the “Intracellular infection assays: A. castellanii / M. marinum” value turned out to be 1.19. Moreover, the “Growth inhibition / Cytotoxicity assays: D. discoideum GFP-ABD” value in series [4] is on record as 0.93. Moreover, the “Intracellular infection assays: BV2 / M. marinum” value in series [5] was determined as 1.12. In series [6], the “Extracellular MIC90” value is 6.8 µM. Also, the “Antibiotic assays: M. marinum luxCDABE” value in series [7] was found to be 1.00.
As to `Cc1ccc(SCCNC(=O)c2c(-c3ccccc3)noc2C)cc1` [GSK1863309A], in series [1], the “Intracelullar MIC90 in THP-1” value is 16.65 µM and the “Extracellular MIC90/ Inracellular MIC90” value is on record as 0.47. For the same molecule, the “Growth inhibition / Cytotoxicity assays: BV2 cells” value in series [2] was “False”. In addition, the “Intracellular infection assays: A. castellanii / M. marinum” value in series [3] was 1.09. For the same molecule, the “Growth inhibition / Cytotoxicity assays: D. discoideum GFP-ABD” value in series [4] was 0.97. In addition, in series [5], the “Intracellular infection assays: BV2 / M. marinum” value is listed as 1.12. For the same molecule, the “Extracellular MIC90” value in series [6] is on record as 7.8 µM. Also, the “Antibiotic assays: M. marinum luxCDABE” value in series [7] worked out at 0.00.

Values taken from PMC5834492, “Antimycobacterial drug discovery using Mycobacteria-infected amoebae identifies anti-infectives and new molecular targets” (Scientific Reports, 2018).
